From PubChem BioAssay (NCI)
Where “and” joins values, the source holds several entries; their conditions need not be identical. Equal values may be shown once.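 Test compounds were applied to cells in 96-well plates for 48 hours at 5 doses. The concentration for 50% growth inhibition is given as GI50. The concentration for full growth arrest is given as TGI.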

Key:
Assay in all cases: NCI anticancer screen, dose series, 48 h
HL-60(TB) leukemia = system: HL-60(TB) leukemia
MALME-3M melanoma = system: MALME-3M melanoma
A549 NSCLC = system: A549 NSCLC
M14 melanoma = system: M14 melanoma
NCI/ADR-RES ovarian = system: NCI/ADR-RES ovarian
SNB-75 CNS = system: SNB-75 CNS
KM12 colon = system: KM12 colon
BT-549 breast = system: BT-549 breast
786-0 renal = system: 786-0 renal
OVCAR-4 ovarian = system: OVCAR-4 ovarian
SK-OV-3 ovarian = system: SK-OV-3 ovarian
MDA-MB-231 breast = system: MDA-MB-231 breast
MCF7 breast = system: MCF7 breast
NCI-H23 lung = system: NCI-H23 lung
SR leukemia = system: SR leukemia
CCRF-CEM leukemia = system: CCRF-CEM leukemia
SF-539 CNS = system: SF-539 CNS
SK-MEL-28 melanoma = system: SK-MEL-28 melanoma
SK-MEL-5 melanoma = system: SK-MEL-5 melanoma
OVCAR-5 ovarian = system: OVCAR-5 ovarian
U251 CNS = system: U251 CNS
SN12C renal = system: SN12C renal
SNB-19 CNS = system: SNB-19 CNS
UACC-62 melanoma = system: UACC-62 melanoma
NCI-H460 lung = system: NCI-H460 lung
RXF 393 renal = system: RXF 393 renal
UO-31 renal = system: UO-31 renal
K-562 leukemia = system: K-562 leukemia
HCT-116 colon = system: HCT-116 colon
DU-145 prostate = system: DU-145 prostate
IGROV1 ovarian = system: IGROV1 ovarian
HCT-15 colon = system: HCT-15 colon
A498 renal = system: A498 renal
T-47D breast = system: T-47D breast
SK-MEL-2 melanoma = system: SK-MEL-2 melanoma
COLO 205 colon = system: COLO 205 colon
SW-620 colon = system: SW-620 colon
SF-295 CNS = system: SF-295 CNS
NCI-H226 lung = system: NCI-H226 lung
HT29 colon = system: HT29 colon
HCC-2998 colon = system: HCC-2998 colon
LOX IMVI melanoma = system: LOX IMVI melanoma
MOLT-4 leukemia = system: MOLT-4 leukemia
NCI-H522 lung = system: NCI-H522 lung
ACHN renal = system: ACHN renal
HOP-62 NSCLC = system: HOP-62 NSCLC
RPMI-8226 leukemia = system: RPMI-8226 leukemia
CAKI-1 renal = system: CAKI-1 renal
SF-268 CNS = system: SF-268 CNS
UACC-257 melanoma = system: UACC-257 melanoma
HOP-92 NSCLC = system: HOP-92 NSCLC
PC-3 prostate = system: PC-3 prostate
OVCAR-8 ovarian = system: OVCAR-8 ovarian
MDA-MB-435 = system: MDA-MB-435

CCC1=C[C@@H]2CN(C1)Cc1c([nH]c3ccccc13)[C@@](C(=O)OC)(c1cc3c(cc1OC)N(C)[C@H]1[C@@](O)(C(=O)OC)[C@H](OC(C)=O)[C@]4(CC)[C@@H]5C[C@@H]5CN5CC[C@]31[C@@H]54)C2
GI50 (HL-60(TB) leukemia): < 0.005 µM | GI50 (MALME-3M melanoma): < 0.005 µM | TGI (MALME-3M melanoma): 1.29 µM | GI50 (A549 NSCLC): < 0.005 µM | TGI (A549 NSCLC): 5.95 µM and 12.2 µM | GI50 (M14 melanoma): < 0.005 µM and 0.0119 µM | GI50 (NCI/ADR-RES ovarian): 0.111 µM and 0.662 µM | TGI (NCI/ADR-RES ovarian): 2.82 µM and 22.6 µM | TGI (SNB-75 CNS): 11 µM | GI50 (KM12 colon): < 0.005 µM | TGI (KM12 colon): 6.54 µM and 11.1 µM | TGI (BT-549 breast): 3.46 µM and 17.5 µM | GI50 (786-0 renal): < 0.005 µM and 0.0139 µM | TGI (786-0 renal): 1.58 µM and 14.2 µM | GI50 (OVCAR-4 ovarian): < 0.005 µM | TGI (OVCAR-4 ovarian): 10.7 µM | GI50 (SK-OV-3 ovarian): < 0.005 µM | GI50 (MDA-MB-231 breast): < 0.005 µM and 0.0335 µM | GI50 (MCF7 breast): < 0.005 µM | TGI (MCF7 breast): 5.44 µM and 12.6 µM | GI50 (NCI-H23 lung): < 0.005 µM and 0.0492 µM | TGI (NCI-H23 lung): 10.2 µM and 38.4 µM | GI50 (SR leukemia): < 0.005 µM | GI50 (CCRF-CEM leukemia): < 0.005 µM | GI50 (SF-539 CNS): 0.0342 µM | TGI (SF-539 CNS): 2.91 µM | GI50 (SK-MEL-28 melanoma): < 0.005 µM | TGI (SK-MEL-28 melanoma): 7.96 µM | GI50 (SK-MEL-5 melanoma): < 0.005 µM and 0.017 µM | TGI (SK-MEL-5 melanoma): 0.327 µM and 1.77 µM | TGI (OVCAR-5 ovarian): 16.9 µM and 73.9 µM | GI50 (U251 CNS): < 0.005 µM | TGI (U251 CNS): 0.671 µM | TGI (SN12C renal): 7.54 µM and 18.5 µM | TGI (SNB-19 CNS): 19.2 µM and 35.1 µM | GI50 (UACC-62 melanoma): < 0.005 µM | TGI (UACC-62 melanoma): 6.39 µM and 16.9 µM | GI50 (NCI-H460 lung): < 0.005 µM | TGI (NCI-H460 lung): 5.05 µM and 11.6 µM | GI50 (RXF 393 renal): 0.0105 µM | TGI (RXF 393 renal): 11.1 µM | TGI (UO-31 renal): 7.7 µM and 12.6 µM | GI50 (K-562 leukemia): < 0.005 µM | GI50 (HCT-116 colon): < 0.005 µM | TGI (HCT-116 colon): 5.18 µM and 13 µM | GI50 (DU-145 prostate): < 0.005 µM | TGI (IGROV1 ovarian): 6.87 µM and 14.5 µM | GI50 (HCT-15 colon): 0.0162 µM and 0.0881 µM | TGI (HCT-15 colon): 6.21 µM and 16 µM | GI50 (A498 renal): < 0.005 µM and 0.0144 µM | TGI (A498 renal): 0.0112 µM and 0.0857 µM | TGI (T-47D breast): 11.5 µM and 23.9 µM | GI50 (SK-MEL-2 melanoma): < 0.005 µM | TGI (SK-MEL-2 melanoma): 2.07 µM | GI50 (COLO 205 colon): < 0.005 µM | TGI (COLO 205 colon): 0.00546 µM and 0.0282 µM | GI50 (SW-620 colon): < 0.005 µM | TGI (SW-620 colon): 9.16 µM and 21 µM | GI50 (SF-295 CNS): < 0.005 µM | TGI (SF-295 CNS): < 0.005 µM and 0.011 µM | GI50 (NCI-H226 lung): 0.0191 µM | TGI (NCI-H226 lung): 6.57 µM | GI50 (HT29 colon): < 0.005 µM | TGI (HT29 colon): 0.8 µM and 1.06 µM | GI50 (HCC-2998 colon): < 0.005 µM and 0.0211 µM | GI50 (LOX IMVI melanoma): < 0.005 µM | GI50 (MOLT-4 leukemia): < 0.005 µM | GI50 (NCI-H522 lung): < 0.005 µM | TGI (NCI-H522 lung): < 0.005 µM | GI50 (ACHN renal): 0.0191 µM and 0.168 µM | TGI (ACHN renal): 7.79 µM and 26.2 µM | GI50 (HOP-62 NSCLC): < 0.005 µM | TGI (HOP-62 NSCLC): 6.94 µM and 16.7 µM | GI50 (RPMI-8226 leukemia): < 0.005 µM | TGI (RPMI-8226 leukemia): 0.656 µM | GI50 (CAKI-1 renal): 0.0319 µM and 0.0818 µM | TGI (CAKI-1 renal): 6.17 µM and 20.5 µM | GI50 (SF-268 CNS): < 0.005 µM and 0.0151 µM | TGI (SF-268 CNS): 8.94 µM and 12.8 µM | TGI (UACC-257 melanoma): 7.53 µM and 15.6 µM | GI50 (HOP-92 NSCLC): < 0.005 µM | TGI (HOP-92 NSCLC): 0.353 µM | GI50 (PC-3 prostate): < 0.005 µM | TGI (PC-3 prostate): 6.54 µM and 15 µM | GI50 (OVCAR-8 ovarian): < 0.005 µM and 0.0292 µM | TGI (OVCAR-8 ovarian): 6.9 µM and 12.7 µM

CC1=C2C(=O)c3ccccc3C2=C(C)S(=O)(=O)O1
TGI (HL-60(TB) leukemia): > 10 µM | TGI (MALME-3M melanoma): > 10 µM | TGI (A549 NSCLC): > 10 µM | TGI (M14 melanoma): > 10 µM | TGI (NCI/ADR-RES ovarian): > 10 µM | TGI (SNB-75 CNS): > 10 µM | TGI (MDA-MB-435): > 10 µM | TGI (786-0 renal): > 10 µM | TGI (OVCAR-4 ovarian): > 10 µM | TGI (SK-OV-3 ovarian): > 10 µM | TGI (MCF7 breast): > 10 µM | TGI (NCI-H23 lung): > 10 µM | TGI (SR leukemia): > 10 µM | TGI (CCRF-CEM leukemia): > 10 µM | TGI (SK-MEL-28 melanoma): > 10 µM | TGI (SK-MEL-5 melanoma): > 10 µM | TGI (OVCAR-5 ovarian): > 10 µM | TGI (U251 CNS): > 10 µM | TGI (UACC-62 melanoma): > 10 µM | TGI (NCI-H460 lung): > 10 µM | TGI (RXF 393 renal): > 10 µM | TGI (K-562 leukemia): > 10 µM | TGI (IGROV1 ovarian): > 10 µM | TGI (T-47D breast): > 10 µM | TGI (SK-MEL-2 melanoma): > 10 µM | TGI (COLO 205 colon): > 10 µM | TGI (SW-620 colon): > 10 µM | TGI (MOLT-4 leukemia): > 10 µM | TGI (ACHN renal): > 10 µM | TGI (HOP-62 NSCLC): > 10 µM | TGI (RPMI-8226 leukemia): > 10 µM | TGI (CAKI-1 renal): > 10 µM | TGI (SF-268 CNS): > 10 µM
